Test results taken from US20050267166A1, “Continuous dosing regimen” (priority 2004, published 2005).
pKi: −log10 of the molar value.

Columns and labels:
[1] = system: M5076 transplantable murine reticulum cell sarcoma; details: for antitumor activity in the M5076 model: in words; for ILS: comparator drugs, dose not given
[2] = system: HCT-15 human colon carcinoma; test: HCT-15 human colon carcinoma xenografts; type: in vivo; details: in words
Description: HCT-15 is a human colon carcinoma derived cell line. It is MDR positive, and expresses both mutant p53 and oncogenic K-ras. The HCT-15 cell line has one of the highest levels of mdr-1/P-glycoprotein expression of cells from the NCI tumor cell line panel.
Effect of Cytotoxic Agents on the Growth of HCT-15 Human Colon Carcinoma Xenografts

[3] = system: NCI-H460 human non-small cell lung carcinoma; test: NCI-H460 xenograft model; type: in vivo; details: in words
Description: NCI-H460 is a human non-small cell lung carcinoma derived cell line. It is MDR negative, has wild type p53, and contains an oncogenic K-ras mutation.

[4] = system: C26 colon tumors; test: C26 colon tumors grown in the flank of CDF-1 mice; type: in vivo; details: comparator, regimen not given
[5] = target: biotinylated bovine brain tubulin

SMILES | antitumor activity in the M5076 model [1] | ILS [1] [%] | efficacy in HCT-15 xenografts [2] | efficacy in the NCI-H460 xenograft model [3] | efficacy against C26 colon tumors [4] | pKi ([5]; competition of [3H]colchicine) | displacement of [3H]colchicine from the colchicine site of tubulin β-subunits ([5]; in words)
O=P1(N(CCCl)CCCl)NCCCO1 (stereo not shown) [cyclophosphamide] | sensitive |  |  |  |  |  | 
COc1cccc2c1C(=O)c1c(O)c3c(c(O)c1C2=O)C[C@@](O)(C(=O)CO)C[C@@H]3O[C@H]1C[C@H](N)[C@H](O)[C@H](C)O1 [doxorubicin] | only marginally active | 13 |  |  |  |  | 
CC(=O)O[C@H]1C(=O)[C@@]2(C)[C@H]([C@H](OC(=O)c3ccccc3)[C@]3(O)C[C@H](OC(=O)[C@H](O)[C@@H](NC(=O)c4ccccc4)c4ccccc4)C(C)=C1C3(C)C)[C@]1(OC(C)=O)CO[C@@H]1C[C@@H]2O [paclitaxel, reference compound] | resistant |  | not efficacious | lacked activity | not efficacious |  | 
CC[C@]1(O)C[C@@H]2CN(CCc3c([nH]c4ccccc34)[C@@](C(=O)OC)(c3cc4c(cc3OC)N(C)[C@H]3[C@@](O)(C(=O)OC)[C@H](OC(C)=O)[C@]5(CC)C=CCN6CC[C@]43[C@@H]65)C2)C1 [vinblastine] |  |  |  |  |  | < 4.00 | do not displace
CC[C@]1(O)C[C@H]2CN(CCc3c([nH]c4ccccc34)[C@@](C(=O)OC)(c3cc4c(cc3OC)N(C=O)[C@H]3[C@@](O)(C(=O)OC)[C@H](OC(C)=O)[C@]5(CC)C=CCN6CC[C@]43[C@@H]65)C2)C1 [vincristine, reference compound] | only marginally active | 17 | not efficacious | lacked activity |  |  | 
